Test results as given in patent publication US10730863B2, “Bridged bicyclic compounds as farnesoid X receptor modulators” (BRISTOL-MYERS SQUIBB COMPANY, priority 2017, dated 2020).

Target: FXR (Homo sapiens (Human), UniProt Q96RI1)
Test: FXR EC50 (FXR agonist activity reported with each example)
Type: cell-based

FXR, sequence (Q96RI1 262-486): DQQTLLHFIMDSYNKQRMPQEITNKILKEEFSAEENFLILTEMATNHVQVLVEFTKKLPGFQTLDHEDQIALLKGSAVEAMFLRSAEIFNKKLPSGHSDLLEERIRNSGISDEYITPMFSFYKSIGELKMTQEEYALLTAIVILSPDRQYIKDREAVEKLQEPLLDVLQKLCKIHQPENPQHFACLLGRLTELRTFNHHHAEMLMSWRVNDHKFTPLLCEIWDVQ

Row | EC50 | SMILES
1 | 95 nM | O=C(O)c1cc(-c2noc(C34CCC(OCc5c(-c6c(Cl)cncc6Cl)noc5C5CC5)(CC3)CC4)n2)cc(OCC(F)(F)F)n1 [Example 263, 4-(5-(4-((5-cyclopropyl-3-(3,5-dichloropyridin-4-yl)isoxazol-4-yl)methoxy)bicyclo[2.2.2]octan-1-yl)-1,2,4-oxadiazol-3-yl)-6-(2,2,2-trifluoroethoxy)picolinic acid]
2 | 180 nM | O=C(O)c1cc(-c2noc(C34CCC(OCc5c(-c6c(Cl)cncc6Cl)noc5C5CC5)(CC3)CC4)n2)cc(C(F)(F)F)n1 [Example 264, 4-(5-(4-((5-cyclopropyl-3-(3,5-dichloropyridin-4-yl)isoxazol-4-yl)methoxy)bicyclo[2.2.2]octan-1-yl)-1,2,4-oxadiazol-3-yl)-6-(trifluoromethyl)picolinic acid]
3 | 1500 nM | COc1cc(-c2noc(C34CCC(OCc5c(-c6c(Cl)cncc6Cl)noc5C5CC5)(CC3)CC4)n2)cnc1C(=O)O [Example 265, 5-(5-(4-((5-cyclopropyl-3-(3,5-dichloropyridin-4-yl)isoxazol-4-yl)methoxy)bicyclo[2.2.2]octan-1-yl)-1,2,4-oxadiazol-3-yl)-3-methoxypicolinic acid]
4 | 720 nM | O=C(O)C1CC1c1noc(C23CCC(OCc4c(-c5c(Cl)cccc5Cl)noc4C4CC4)(CC2)CC3)n1 (centres unmarked) [Example 266, 2-(5-(4-((5-cyclopropyl-3-(2,6-dichlorophenyl)isoxazol-4-yl)methoxy)bicyclo[2.2.2]octan-1-yl)-1,2,4-oxadiazol-3-yl)cyclopropane-1-carboxylic acid]
5 | 4400 nM | Clc1cccc(Cl)c1-c1noc(C2CC2)c1COC12CCC(c3nc(-c4nn[nH]n4)no3)(CC1)CC2 [Example 267, 5-(4-((5-cyclopropyl-3-(2,6-dichlorophenyl)isoxazol-4-yl)methoxy)bicyclo[2.2.2]octan-1-yl)-3-(2H-tetrazol-5-yl)-1,2,4-oxadiazole]
6 | 400 nM | O=C(O)C1CC1c1noc(CC23CCC(OCc4c(-c5c(Cl)cncc5Cl)noc4C4CC4)(CC2)CC3)n1 (centres unmarked) [Example 272, 2-(5-((4-((5-cyclopropyl-3-(3,5-dichloropyridin-4-yl)isoxazol-4-yl)methoxy)bicyclo[2.2.2]octan-1-yl)methyl)-1,2,4-oxadiazol-3-yl)cyclopropane-1-carboxylic acid]
7 | 3300 nM | COc1ccc(-c2noc(C34CCC(OCc5c(-c6c(Cl)cnn6C)noc5C5CC5)(CC3)CC4)n2)cc1C(=O)O [Example 273, 5-(5-(4-((3-(4-chloro-1-methyl-1H-pyrazol-5-yl)-5-cyclopropylisoxazol-4-yl)methoxy)bicyclo[2.2.2]octan-1-yl)-1,2,4-oxadiazol-3-yl)-2-methoxybenzoic acid]
8 | 170 nM | O=C(O)c1ccc(OCC23CCC(OCc4c(-c5c(Cl)cncc5Cl)noc4C4CC4)(CC2)CC3)c(F)c1 [Example 276, 4-((4-((5-cyclopropyl-3-(3,5-dichloropyridin-4-yl)isoxazol-4-yl)methoxy)bicyclo[2.2.2]octan-1-yl)methoxy)-3-fluorobenzoic acid]
9 | 620 nM | NC(=O)c1cnc(OCC23CCC(OCc4c(-c5c(Cl)cncc5Cl)noc4C4CC4)(CC2)CC3)c(C(F)(F)F)c1 [Example 278, 6-((4-((5-cyclopropyl-3-(3,5-dichloropyridin-4-yl)isoxazol-4-yl)methoxy)bicyclo[2.2.2]octan-1-yl)methoxy)-5-(trifluoromethyl)nicotinamide]
10 | 190 nM | O=C(O)c1cnc(OCC23CCC(OCc4c(-c5c(Cl)cncc5Cl)noc4C4CC4)(CC2)CC3)c(C(F)(F)F)c1 [Example 279, 6-((4-((5-cyclopropyl-3-(3,5-dichloropyridin-4-yl)isoxazol-4-yl)methoxy)bicyclo[2.2.2]octan-1-yl)methoxy)-5-(trifluoromethyl)nicotinic acid]
11 | 23 nM | O=C(O)c1cc(C(F)(F)F)cc(OCC23CCC(OCc4c(-c5c(Cl)cncc5Cl)noc4C4CC4)(CC2)CC3)n1 [Example 280, 6-((4-((5-cyclopropyl-3-(3,5-dichloropyridin-4-yl)isoxazol-4-yl)methoxy)bicyclo[2.2.2]octan-1-yl)methoxy)-4-(trifluoromethyl)picolinic acid]
12 | 60 nM | COc1cc(C(=O)O)nc2ccc(OCC34CCC(OCc5c(-c6c(Cl)cncc6Cl)noc5C5CC5)(CC3)CC4)cc12 [Example 282, 6-((4-((5-cyclopropyl-3-(3,5-dichloropyridin-4-yl)isoxazol-4-yl)methoxy)bicyclo[2.2.2]octan-1-yl)methoxy)-4-methoxyquinoline-2-carboxylic acid]

Row | SMILES | EC50
13 | O=C(O)c1cn(CC23CCC(OCc4c(-c5c(Cl)cccc5Cl)noc4C4CC4)(CC2)CC3)nc1C(F)F [Example 268, 1-((4-((5-cyclopropyl-3-(2,6-dichlorophenyl)isoxazol-4-yl)methoxy)bicyclo[2.2.2]octan-1-yl)methyl)-3-(difluoromethyl)-1H-pyrazole-4-carboxylic acid] | 460 nM
14 | O=C(O)c1cnn(CC23CCC(OCc4c(-c5c(Cl)cccc5Cl)noc4C4CC4)(CC2)CC3)c1C(F)F [Example 269, 1-((4-((5-cyclopropyl-3-(2,6-dichlorophenyl)isoxazol-4-yl)methoxy)bicyclo[2.2.2]octan-1-yl)methyl)-5-(difluoromethyl)-1H-pyrazole-4-carboxylic acid] | 700 nM
15 | O=C(O)C1CC1c1noc(C23CCC(OCc4c(-c5c(Cl)cncc5Cl)noc4C4CC4)(CC2)CC3)n1 (centres unmarked) [Example 270, 2-(5-(4-((5-cyclopropyl-3-(3,5-dichloropyridin-4-yl)isoxazol-4-yl)methoxy)bicyclo[2.2.2]octan-1-yl)-1,2,4-oxadiazol-3-yl)cyclopropane-1-carboxylic acid] | 1500 nM
16 | O=C(O)C1(c2noc(C34CCC(OCc5c(-c6c(Cl)cncc6Cl)noc5C5CC5)(CC3)CC4)n2)CC1 [Example 271, 1-(5-(4-((5-cyclopropyl-3-(3,5-dichloropyridin-4-yl)isoxazol-4-yl)methoxy)bicyclo[2.2.2]octan-1-yl)-1,2,4-oxadiazol-3-yl)cyclopropane-1-carboxylic acid] | 1100 nM
17 | CC(C)Oc1cc(-c2noc(C34CCC(OCc5c(-c6c(Cl)cnn6C)noc5C5CC5)(CC3)CC4)n2)cc(C(=O)O)n1 [Example 274, 4-(5-(4-((3-(4-chloro-1-methyl-1H-pyrazol-5-yl)-5-cyclopropylisoxazol-4-yl)methoxy)bicyclo[2.2.2]octan-1-yl)-1,2,4-oxadiazol-3-yl)-6-isopropoxypicolinic acid] | 890 nM
18 | COc1cc(-c2noc(C34CCC(OCc5c(-c6c(Cl)cnn6C)noc5C5CC5)(CC3)CC4)n2)cc(C(=O)O)n1 [Example 275, 4-(5-(4-((3-(4-chloro-1-methyl-1H-pyrazol-5-yl)-5-cyclopropylisoxazol-4-yl)methoxy)bicyclo[2.2.2]octan-1-yl)-1,2,4-oxadiazol-3-yl)-6-methoxypicolinic acid] | 2500 nM
19 | O=C(O)c1cc(OCC23CCC(OCc4c(-c5c(Cl)cncc5Cl)noc4C4CC4)(CC2)CC3)ccc1F [Example 277] | 47 nM
20 | O=C(O)c1cnc(OCC23CCC(OCc4c(-c5c(Cl)cncc5Cl)noc4C4CC4)(CC2)CC3)cc1C(F)(F)F [Example 283] | 15 nM
